{
  "source": "patent US8367696B2",
  "about": "“Aza-bridged-ring compound” (Astellas Pharma Inc., priority 2007, dated 2013)",
  "key": {"[1]": {"test_system": "carbachol-induced airway contraction", "experiment": "Test of rat airway contraction (carbachol-induced rise in airway pressure)", "format": "in vivo", "conditions": "for ID50, carbachol-induced airway contraction inhibitory action: evaluation after 3 hours from oral administration, carbachol 30 μg/kg i.v.; for Inhibition rate, carbachol-induced airway contraction inhibitory action: evaluation after 24 hours from administration into the trachea of 0.5 μg/kg of a drug", "experimental": "a. Test of Rat Airway Contraction\nMale SD rats (250 to 400 g) were anesthetized by the intraperitoneal administration of pentobarbital sodium (Nembutal; 50 mg/kg), and the major airway was dissected. An airway cannula was intubated into the trachea, and the pressure in the airway was measured by a pressure transducer. After administration of pancuronium bromide (0.2 mg/kg, i.v.), a stable pressure in the airway was obtained before the experiment was initiated. For the experiment, by administration into the external maxillary vein/administration into the duodenum/oral administration/administration into the airway, physiological saline (in the case of oral administration/administration into the duodenum, distilled water) or a compound to be tested was administered, and after 5 to 30 minutes in the case of intravenous administration, after 0.25 to 6 hours in the case of oral administration into the duodenum, and after 0.25 to 72 hours in the case of administration into the airway, carbachol was intravenously administered at a dose (volume) of 30 μg/kg (1 mL/kg), and the pressures in the airway were then measured, respectively, for a period of 5 minutes. […]"}, "muscarinic M3 receptor": {"target": "muscarinic M3 receptor (Rattus norvegicus, UniProt P08483)", "sequence (P08483 whole entry)": "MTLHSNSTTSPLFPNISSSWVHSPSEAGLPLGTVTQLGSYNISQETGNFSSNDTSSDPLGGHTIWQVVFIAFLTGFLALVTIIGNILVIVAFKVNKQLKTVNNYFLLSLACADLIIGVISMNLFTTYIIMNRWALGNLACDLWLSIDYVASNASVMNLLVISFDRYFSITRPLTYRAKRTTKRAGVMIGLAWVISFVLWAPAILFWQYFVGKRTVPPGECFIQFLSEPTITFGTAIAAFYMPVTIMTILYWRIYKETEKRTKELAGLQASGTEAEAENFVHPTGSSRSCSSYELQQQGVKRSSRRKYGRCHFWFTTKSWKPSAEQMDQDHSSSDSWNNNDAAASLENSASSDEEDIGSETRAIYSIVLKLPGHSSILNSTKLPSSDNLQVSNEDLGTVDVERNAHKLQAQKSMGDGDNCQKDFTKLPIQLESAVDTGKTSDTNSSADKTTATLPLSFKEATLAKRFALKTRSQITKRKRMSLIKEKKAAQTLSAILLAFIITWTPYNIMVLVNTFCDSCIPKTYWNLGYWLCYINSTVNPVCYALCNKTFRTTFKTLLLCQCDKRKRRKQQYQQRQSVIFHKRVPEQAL", "conditions": "receptor binding antagonistic experiment, [3H]-N-methylscopolamine, rat membrane specimen, 25° C. 2 hours", "procedure": "Test of Muscarinic Receptor Affinity (In Vitro)\nThe submandibular gland/heart and the cerebral cortex were harvested from male SD rats (Japan SLC, Inc.) and a 10-fold volume of a 25 mM Tris buffer (pH=7.4, hereinafter referred to as a Tris buffer) containing 3.75 mM magnesium chloride was added thereto, followed by homogenization under ice-cooling. Centrifugation was performed at 1,000 g, 4° C. for 10 minutes, and then ultracentrifugation was performed at 100,000 g, 4° C. for 30 minutes. This precipitate was suspended in a Tris buffer and stored at −80° C. After this, it was melted in use, and tested.\nA membrane specimen of any one of the submandibular gland, the heart, and the cerebral cortex, [^3H]-N-methylscopolamine (N-methylscopolamine) and a compound to be tested were incubated in 0.3 mL of a Tris buffer at 25° C. for 2 hours, and suction-filtered through a glass filter (Whatman GF/B), and the filter was washed 8 times with 0.3 mL of a Tris buffer. The radioactivity of [^3H]-N-methylscopolamine adsorbed on the filter was measured with Top Count. Further, the receptor-specific binding was determined by adding 1 μM N-methylscopolamine. […]"}},
  "data": [
    {"smiles": "Cl.O=C(Nc1ncsc1-c1ccccc1)OCC12CCN(CC1)CC2", "note": "[Example 6, 1-azabicyclo[2.2.2]oct-4-ylmethyl(5-phenyl-1,3-thiazol-4-yl)carbamate hydrochloride]", "values": [
      {"measurement": "ID50, carbachol-induced airway contraction inhibitory action", "setting": "[1]", "value": 0.1, "unit": "mg/kg"}
    ]},
    {"smiles": "O=C(Nc1ncsc1-c1ccccc1)OC12CCCN(CC1)CC2", "note": "[Example 14, 1-azabicyclo[3.2.2]non-5-yl(5-phenyl-1,3-thiazol-4-yl)carbamate]", "values": [
      {"measurement": "ID50, carbachol-induced airway contraction inhibitory action", "setting": "[1]", "value": 0.027, "unit": "mg/kg"}
    ]},
    {"smiles": "C[N+]12CCC(OC(=O)Nc3ncsc3-c3cccc(Cl)c3)(CC1)CC2", "note": "[Example 32]", "values": [
      {"measurement": "Inhibition rate, carbachol-induced airway contraction inhibitory action", "setting": "[1]", "value": 82, "unit": "%"}
    ]},
    {"smiles": "O=C(Nc1ccsc1-c1ccccc1)OCC1C[N+]2(CCCc3ccccc3)CCC1CC2", "note": "(centres unmarked) [Example 43]", "values": [
      {"measurement": "Inhibition rate, carbachol-induced airway contraction inhibitory action", "setting": "[1]", "value": 64, "unit": "%"}
    ]},
    {"smiles": "O=C(Nc1ncsc1-c1ccccc1)OC12CC[N+](CCOc3ccccc3)(CC1)CC2", "note": "[Example 46]", "values": [
      {"measurement": "Inhibition rate, carbachol-induced airway contraction inhibitory action", "setting": "[1]", "value": 90, "unit": "%"}
    ]},
    {"smiles": "O=C(Nc1ncsc1-c1ccccc1)OC12CC[N+](CCc3ccccc3)(CC1)CC2", "note": "[Example 50]", "values": [
      {"measurement": "Inhibition rate, carbachol-induced airway contraction inhibitory action", "setting": "[1]", "value": 61, "unit": "%"}
    ]},
    {"smiles": "C[N+]12CCC(OC(=O)Nc3ncsc3-c3cc(F)ccc3F)(CC1)CC2.[I-]", "note": "[Example 57]", "values": [
      {"measurement": "Inhibition rate, carbachol-induced airway contraction inhibitory action", "setting": "[1]", "value": 64, "unit": "%"}
    ]},
    {"smiles": "C[N+]12CCCC(OC(=O)Nc3ncsc3-c3ccccc3)(CC1)CC2.[I-]", "note": "[Example 65]", "values": [
      {"measurement": "Inhibition rate, carbachol-induced airway contraction inhibitory action", "setting": "[1]", "value": 61, "unit": "%"}
    ]},
    {"smiles": "O=C(Nc1ncsc1-c1cccc(Cl)c1)OC12CC[N+](CCOc3ccccc3)(CC1)CC2.[Br-]", "note": "[Example 66]", "values": [
      {"measurement": "Inhibition rate, carbachol-induced airway contraction inhibitory action", "setting": "[1]", "value": 80, "unit": "%"}
    ]},
    {"smiles": "O=C(Nc1ncsc1-c1ccccc1)OC12CCN(CC1)CC2", "note": "[Example 95]", "values": [
      {"measurement": "Ki", "setting": "muscarinic M3 receptor", "value": 0.2, "unit": "nM"}
    ]},
    {"smiles": "Cl.O=C(Nc1ncsc1-c1ccccc1)OC1C2CC3CC1CN(C3)C2", "note": "(centres unmarked) [Example 110]", "values": [
      {"measurement": "ID50, carbachol-induced airway contraction inhibitory action", "setting": "[1]", "value": 0.41, "unit": "mg/kg"}
    ]},
    {"smiles": "Cl.O=C(Nc1ccsc1-c1ccccc1)OCC1CN2CCC1CC2", "note": "(centres unmarked) [Example 136]", "values": [
      {"measurement": "ID50, carbachol-induced airway contraction inhibitory action", "setting": "[1]", "value": 0.68, "unit": "mg/kg"}
    ]},
    {"smiles": "Cl.O=C(Nc1ncsc1-c1ccc(F)cc1)OC12CCN(CC1)CC2", "note": "[Example 156]", "values": [
      {"measurement": "ID50, carbachol-induced airway contraction inhibitory action", "setting": "[1]", "value": 0.091, "unit": "mg/kg"}
    ]},
    {"smiles": "Cl.O=C(Nc1ncsc1-c1ccccc1)OCC1CN2CCCC1C2", "note": "(centres unmarked) [Example 264]", "values": [
      {"measurement": "ID50, carbachol-induced airway contraction inhibitory action", "setting": "[1]", "value": 0.21, "unit": "mg/kg"}
    ]}
  ]
}
